# Measured values published in patent publication US20120004205A1, “IL-13 INDUCED GENE SIGNATURE FOR EOSINOPHILIC ESOPHAGITIS” (Cincinnati Children's Hospital Medical Center, priority 2008, published 2012).
# Columns and labels:
# STAT6:ER = assay: Eotaxin-3 promoter luciferase reporter in TE-7 cells cotransfected with STAT6:ER; format: cell-based, human; details: TE-7 cotransfected with eotaxin-3 promoter construct and STAT6:ER, within 24 hours
# Procedure: Plasmids were constructed or obtained as described before Blanchard, C. et al., (2005) Int. J. Biochem Cell Biol. 37: 2559-2573. Briefly, plasmid denoted P800, P500 and P100 contained respectively the first 800 by 500 by or 100 by of the human eotaxin-3 gene promoter (pEO3) subcloned into KpnI/HindIII-digested pGL3-Basic (Promega) as previously described Blanchard, C. et al., (2005) Int. J. Biochem. Cell Biol. 37: 2559-2579. Directed mutagenesis of the eotaxin-3 promoter was performed using Quickchange Kit from Stratagene according to the manufacturer's instructions using 2 primer sets: (first set) 5′-CCCAACCACAAGAAggtacc[…]-3′ and 5′-[…] ggtacc TTCTGTGGTTGGG-3′ which include a KpnI restriction site in the -89 TTCtctcgGAA STAT6 consensus site and (second set) 5′-GTAACTTAGTTCAG ggatcc […]-3′ and 5′-[…] ggatcc CTGAACTAAGTTAC-3′ which include a […] restriction site in the -698 TTCactgGAA STAT6 consensus site. […]
# Approximately 10^4 TE-7 cells per well (24 well plate) were plated on day 1 and transfected by Lipofectamine™ reagent on day 2. […] Cells were then lysed and the Firefly and Renilla luciferase activities were measured in a luminometor (Microlite, Dynatec Laboratories, Inc) using the Dual Luciferase Reporter assay system (Promega) in accordance with the manufacturer's instructions. […]
# [1] = test system: TE-1 esophageal cell line; assay: Eotaxin-3 mRNA expression after IL-13 stimulation, real-time PCR; format: cell-based, human; details: TE-1 cells, IL-13 100 ng/mL
# [2] = test system: TE-6 esophageal cell line; assay: as above; format: cell-based, human; details: TE-6 cells, IL-13 100 ng/mL
# [3] = test system: TE-7 esophageal cell line; assay: as above; format: cell-based, human; details: TE-7 cells, IL-13 100 ng/mL
# [4] = test system: TE-13 esophageal cell line; assay: as above; format: cell-based, human; details: TE-13 cells, IL-13 100 ng/mL
# TE-13 cells = assay: Eotaxin-3 protein released in culture supernatant, ELISA; format: cell-based, human; details: IL-13 100 ng/mL for 24 hours
# Procedure: (§1) Eotaxin-1, 2 and 3 Duo set ELISA were performed according to the manufacturer's instruction (R&D) and as previously described Blanchard, C. et al., (2006) J. Clin. Invest. 116: 536-547. IL-13 Quantikine® Kit (R&D) was used to quantify IL-13 protein levels. The detection limits were respectively […] for eotaxins-1, -2, -3 and IL-13, respectively. The optical density of each well was read at a wavelength of 450 nm.
# TE-7 cells [5] = assay: as above; format: cell-based, human; details: IL-13 100 ng/mL for 24 hours
# Procedure: as §1
# human eotaxin-3 promoter = assay: Eotaxin-3 promoter luciferase reporter in transfected TE-7 cells, IL-13 stimulation; format: cell-based
# Procedure: Plasmids were constructed or obtained as described before Blanchard, C. et al., (2005) Int. J. Biochem Cell Biol. 37: 2559-2573. Briefly, plasmid denoted P800, P500 and P100 contained respectively the first 800 by 500 by or 100 by of the human eotaxin-3 gene promoter (pEO3) subcloned into KpnI/HindIII-digested pGL3-Basic (Promega) as previously described Blanchard, C. et al., (2005) Int. J. Biochem. Cell Biol. 37: […]. Directed mutagenesis of the eotaxin-3 promoter was performed using Quickchange Kit from Stratagene according to the manufacturer's instructions using 2 primer sets: (first set) 5′-CCCAACCACAAGAAggtacc[…]-3′ and 5′-[…] ggtacc TTCTGTGGTTGGG-3′ which include a KpnI restriction site in the -89 TTCtctcgGAA STAT6 consensus site and (second set) 5′-GTAACTTAGTTCAG ggatcc […]-3′ and 5′-[…] ggatcc CTGAACTAAGTTAC-3′ which include a […] restriction site in the -698 TTCactgGAA STAT6 consensus site. The STAT6:ER plasmid was constructed in the pCDNA3 plasmid as previously described Kamogawa, Y. et al., (1998) J. Immunol. 161:1074-1077.
# Approximately 10^4 TE-7 cells per well (24 well plate) were plated on day 1 and transfected by Lipofectamine™ reagent on day 2. Briefly, […] of reporter plasmids were mixed with 3 μl of Lipofectamine™ reagent in […] of serum-free RPMI medium. In all transfection experiments, a plasmid with a Renilla luciferase reporter gene under the control of a thymidine kinase promoter (pHRL-TK, […]) was used as an internal control. In co-transfection experiments with DNSTAT6 or pCDNA3-STAT6:ER (ER-estrogen receptor) plasmids, the empty vectors pCEFL HA or pCDNA3 were added to each set of transfections, respectively, to ensure that each well received the same amount of DNA. Complete medium (0.5 mL) was added and cells were incubated for 48 h to 72 h. The transfection mixture was then replaced with fresh complete medium for an additional 12 h period before cytokine treatment. […] Cells were then lysed and the Firefly and Renilla luciferase activities were measured in a luminometor (Microlite, Dynatec Laboratories, Inc) using the Dual Luciferase Reporter assay system (Promega) in accordance with the manufacturer's instructions.
# Immunol. 42: 295-303; Hoeck, J. and Woisetschlager, M., (2001) J. Immunol. 167: 3216-3222; Yuan, Q. et al., (2006) Eur. J. Immunol. 36: 2700-2714. To determine the STAT6 element or elements involved in the eotaxin-3 stimulation observed in esophageal cell lines, the TE-7 cell line was transiently transfected with the full-length eotaxin luciferase reporter plasmid and truncated versions (FIG. 3). […] The TE-7 cell line was transfected with truncated promoter constructs or with a full-length promoter containing specific mutations within the STAT6 binding sites to map the relevant cis-acting promoter sequences (FIG. 3B).
# TE-7 cells [6] = assay: Eotaxin-3 mRNA stability with actinomycin-D; format: cell-based, human
# [7] = test system: primary esophageal keratinocytes from EE patients; assay: IL-13-induced eotaxin expression ex vivo, real-time PCR; format: cell-based, human
# Description: (§2) Briefly, biopsies were digested with trypsin twice.
# [8] = test system: primary esophageal keratinocytes from EE patients; assay: Eotaxin-3 protein release into supernatant ex vivo, ELISA; format: cell-based, human; details: IL-13 100 ng/mL
# Procedure: as §2, §1
# [9] = test system: primary esophageal epithelial cells from patients with EE; assay: Global transcript-expression profile (microarray) of IL-13-stimulated primary cells; format: cell-based, human
# Procedure: as §2
# For each patient, one distal esophageal mucosal biopsy sample was immersed in RNA, later RNA stabilization reagent (Qiagen) and stored at 4 C. for <15 days. Total RNA was extracted using the RNAeasy Mini Kit (Qiagen) according to the manufacturer's recommendations. Hybridization to DNA microarray was performed by the MicroarrayCore at Cincinnati Children's Hospital Medical Center, as previously reported Blanchard, C. et al., (2006) J. Clin. Invest. 116: 536-547. The genome wide human Affymetrix U133A plus 2.0 Genechip® was used, and gene transcript levels were determined using algorithms in the Microarray Analysis Suite and GeneSpring software (Silicon Genetics) as previously described Blanchard, C. et al., (2006) J. Clin. Invest. 116: 536-547. […] Response to therapy was defined as <1 eosinophils/high power field (hpf) and no epithelial cell hyperplasia as described herein.
# The list of differentially expressed transcripts was subjected to gene ontology analysis using DAVID (database for annotation, visualization and integrated discovery) and EASE (expression analysis systematic explorer), a web-based (hyper text transfer protocol davidabccncifcrfgov) application that allows access to a relational database of functional annotations.
# Primary esophageal epithelial cells from the esophagi of patients with EE were cultured and stimulated with 100 ng/mL IL-13 for 48 hours to identify IL-13-induced esophageal epithelial genes. The mRNA was subjected to global transcript-expression profile analysis and normalized pair wise to unstimulated controls. Genes were filtered to fold change in biopsy specimens from patients with EE compared with those from healthy patients and IL-13 stimulated epithelial cells. A highly significant positive correlation (P<0.0001, Spearman) between modified genes in biopsy specimens from patients with EE and in IL-13-stimulated keratinocytes was observed (FIG. 4C). […] Blanchard, C. et al., (2006) J. Clin. Invest.
# [10] = IL-13 100 ng/mL, 48 hours, P<0.05
molecule,measurement,setting,value
CC/C(=C(\c1ccc(O)cc1)c1ccc(OCCN(C)C)cc1)c1ccccc1 [4-hydroxytamoxifene],induction of eotaxin-3 promoter luciferase activity,STAT6:ER,significant (P<0.01) induction
IL-13: cytokine Interleukin 13 (Preprotech) added to culture media to stimulate esophageal cells,Eotaxin-3 mRNA expression increase,[1],4 fold
same,Eotaxin-3 mRNA expression increase,[2],8 fold
same,Eotaxin-3 mRNA expression increase,[3],77 fold
same,Eotaxin-3 mRNA expression increase,[4],1007 fold
same,eotaxin-3 released in the supernatant,TE-13 cells,0.55 ± 0.37 µg/mL
same,eotaxin-3 released in the supernatant,TE-7 cells [5],2.5 ± 0.7 µg/mL
same,"increase of luciferase activity, full-length reporter plasmid","human eotaxin-3 promoter; TE-7, IL-13 10 ng/mL",2.7+/−0.8 fold
same,"increase of luciferase activity, full-length reporter plasmid","human eotaxin-3 promoter; TE-7, IL-13 100 ng/mL",10.8+/−2.2 fold
same,"IL-13-induced luciferase activity, construct with mutated -89 binding site","human eotaxin-3 promoter; TE-7, after IL-13 stimulation",no increase in luciferase activity
same,"IL-13-induced promoter activity, construct P100 (truncated proximal STAT6 site)","human eotaxin-3 promoter; TE-7, after IL-13 stimulation",no activity
same,"IL-13-induced promoter activity, promoter containing 800 or 500 bp","human eotaxin-3 promoter; TE-7, after IL-13 stimulation",full IL-13-induced activity
same,"stability of eotaxin-3 mRNA, IL-13 treated versus non-treated",TE-7 cells [6],not significantly different
same,increase of eotaxin-3 mRNA expression,[7]; 48 hours after 10 ng/mL IL-13,1000 fold
same,increase of eotaxin-3 mRNA expression,[7]; 48 hours after 100 ng/mL IL-13,10.000 fold
same,release of eotaxin-3 protein into the supernatant,[8],6.03 ± 0.8 ng/mL
same,genes downregulated by 2-fold or greater,"[9]; IL-13 100 ng/mL, 48 hours",116 genes
same,genes downregulated by more than 1.5-fold,"[9]; IL-13 100 ng/mL, 48 hours",553 genes
same,genes modified by 2-fold or greater,"[9]; IL-13 100 ng/mL, 48 hours",371 genes
same,genes modified by more than 1.5-fold,"[9]; IL-13 100 ng/mL, 48 hours",1333 genes
same,genes significantly modified compared with unstimulated cells (P<0.01),"[9]; IL-13 100 ng/mL, 48 hours",952 genes
same,genes significantly modified compared with unstimulated cells (P<0.05),"[9]; IL-13 100 ng/mL, 48 hours",4698 genes
same,genes upregulated by 2-fold or greater,"[9]; IL-13 100 ng/mL, 48 hours",255 genes
same,genes upregulated by more than 1.5-fold,"[9]; IL-13 100 ng/mL, 48 hours",780 genes
same,IL-13-induced genes overlapping with the EE transcriptome,[9]; [10],126 genes
same,share of the EE transcriptome overlapped by IL-13-induced genes,[9]; [10],22%
same,involucrin downregulation (microarray),[9]; IL-13-stimulated cells,4.8 fold
same,TNFAIP6 expression (microarray),[9]; IL-13-stimulated keratinocytes,highly overexpressed
same,cadherin-26 upregulation (microarray),[9]; IL-13-stimulated keratinocytes,50 fold
same,eotaxin-3 upregulation (microarray),[9]; IL-13-stimulated keratinocytes,279 fold
same,eotaxin-1 and eotaxin-2 expression (microarray),[9]; IL-13-treated primary keratinocyte cultures,not overexpressed
